The text below walks through data of patent US10858335B2 (Rigel Pharmaceuticals, Inc., priority 2014, dated 2020).

Structures are written as SMILES.

The first assay relates to GDF8 signaling (p-SMAD-3 (Ser423/425)). In words: AlphaScreen SureFire SMAD3 (p-Ser423/425) assay, GDF8-stimulated cells (GDF pSMAD). It is filed as cell-based. As to conditions: Mus musculus, MPC-11, GDF8-stimulated pSMAD3, MPC11; tested as the salt form given; read-out: GDF pSMAD (MPC11) (μM), inhibition of GDF8 signaling. From the text:
Biological Example 1: AlphaScreen® SureFire® SMAD3 (p-Ser423/425) Assay
The p-SMAD-3 (Ser423/425) SureFire® assay has been designed to measure the phosphorylation of endogenous cellular p-SMAD-3 (Ser423/425) in cell lysates and is a system for the screening of both modulators of receptor activation (e.g. agonists and antagonists) as well as agents acting intracellularly, such as small molecule inhibitors of upstream events. The assay will measure p-SMAD-3 (Ser423/425) activation by either cloned or endogenous receptors, and can be applied to primary cells.
P-SMAD-3 (Ser423/425) SureFire® Assay Protocols
Step A: Preparation of Buffers
1× Lysis buffer: 1 ml of 5× Lysis buffer was diluted with 4 ml of sterile water. After dilution, excess 1× Lysis buffer can be frozen and thawed up to 5 times without loss in activity.
Activation buffer: The buffer was warmed slowly to 37° C. and gently mixed to re-suspend. Activation buffer can be stored at room temperature with no loss in activity.
Reaction buffer: The buffer was kept at 4° C. while in use.
AlphaScreen® Protein A IgG Kit: The kit was stored at 4° C. in the dark.
Reaction buffer+Activation buffer+AlphaScreen® Acceptor beads: Reaction buffer (40 parts), Activation Buffer (10 parts) and Acceptor beads (1 part) were mixed and the mixture was stored at room temperature and used the same day. Mixture was added to 384-well plates; excess mixture was discarded.
Dilution buffer+AlphaScreen® Donor beads: Dilution buffer (20 parts) and Donor beads (1 part) were mixed and the mixture was stored at room temperature and used the same day. Excess mixture was discarded.
Assay control samples: After reconstitution in 250 μl of water, lysates were at −20° C. in single use aliquots.
Step B: Preparation of Samples and Cells
96-well Assay Protocol for 293FT and RMS13 adherent cells can be carried out manually or in high throughput with liquid handling robots.
The cells (80 μL of cells for 96 well plates) were plated in collagen coated tissue culture plates in RPMI or FreeStyle medium (Invitrogen) and incubated overnight. For manual analysis, 6 plates for GDF8, 6 plates for TGFβ, and optionally 6 plates for AlkSca(ALK5 constitutively active) were used.
The compound dilution plates were prepared as follows: 12 μL of DMSO was transferred into first column of 96-well plate, and 16 μL of DMSO was transferred into columns 2-12 of the 96-well plate. 12 μL of compound solution was transferred into first column of the DMSO-containing 96-well plate. Three-fold dilution was performed up to column 10 of the DMSO-containing 96-well plate.
Step C: Treatment and Analysis
The plate containing cells were treated with compounds for about 10 minutes, and then ligand was added. GDF8 or TGFb was added to plates to stimulate. 293FL cells were stimulated for 90 minutes at 37° C.; and RMS13 cells were stimulated for 60 minutes at 37° C. The medium was then removed from the cells, and 1× Lysis Buffer (about 25 μL) was added and the plate was gently agitated on plate shaker for 5-10 minutes.
The lysate (5 μL) was then placed into 384-well shallow plates avoiding the generation of bubbles. To this, the Reaction Buffer+Activation Buffer+AlphaScreen® Acceptor beads mixture (5 μL) was added. The plate was sealed with adhesive cover and shielded from light (e.g., with metal foil), and agitated gently on plate shaker for 2 hours at room temperature.
Dilution buffer+AlphaScreen® Donor beads (2 μL) was then added, and the plate was intubated on the plate shaker for an additional 1½ hours. After completion, the plate was read on Synergy-4 or Enspire plate reader, using AlphaScreen® pSMAD3® settings.
Representative results for inhibition of GDF8 signaling are shown in Table 2(data=GDF pSMAD (MPC11) (μM)): […]
In general terms: In Alpha technology, singlet oxygen from a donor bead excites a nearby acceptor bead.
`Cc1cc(-c2cccnc2-c2ccc(F)c(Cl)c2)cc2c(N)ncnc12` [compound 985, 6-(2-(3-chloro-4-fluorophenyl)pyridin-3-yl)-8-methylquinazolin-4-amine]: the IC50 amounted to 2.18 µM.

For `Nc1ncnc2ccc(-c3cc(F)cnc3-c3cc(Cl)ccc3F)cc12` [compound 999, 6-(2-(5-chloro-2-fluorophenyl)-5-fluoropyridin-3-yl)quinazolin-4-amine], the IC50 came out at 1.2 µM.

As for `COc1ccc(C)c(-c2ncccc2-c2ccc3ncnc(N)c3c2)c1` [compound 1015, 6-(2-(5-methoxy-2-methylphenyl)pyridin-3-yl)quinazolin-4-amine], the IC50 is 6.95 µM.

For `Fc1ccc(Cl)cc1-c1ncccc1-c1ccc2ncnc(Nc3cn[nH]c3)c2c1` [compound 1033, 6-(2-(5-chloro-2-fluorophenyl)pyridin-3-yl)-N-(1H-pyrazol-4-yl)quinazolin-4-amine], the IC50 was found to be 1.58 µM.

Staying with this assay, now noted: Mus musculus, MPC-11, MPC11; GDF8-stimulated; p-SMAD3 AlphaScreen; read-out: GDF pSMAD (MPC11) (inhibition of GDF8 signaling).
Regarding `N#Cc1cnc2ccc(-c3cccnc3-c3cc(F)c(F)cc3F)cn12` [compound 695, 6-(2-(2,4,5-Trifluorophenyl)pyridin-3-yl)imidazo[1,2-a]pyridine-3-carbonitrile], the IC50 was found to be 1.52 µM.

Take `N#Cc1cnc2ccc(-c3cccnc3-c3cccc(C(F)(F)F)c3)cn12` [compound 560, 6-(2-(3-(Trifluoromethyl)phenyl)pyridin-3-yl)imidazo[1,2-a]pyridine-3-carbonitrile]: the IC50 turned out to be 2.48 µM.

Turning to `Cc1cc(-c2ncccc2-c2ccc3ncc(C(=O)NC4CC5CCC(C4)N5C)n3c2)ccc1F` (racemic) [compound 711, rac-6-(2-(4-Fluoro-3-methylphenyl)pyridin-3-yl)-N-(8-methyl-8-azabicyclo[3.2.1]octan-3-yl)imidazo[1,2-a]pyridine-3-carboxamide], the IC50 is 9.28 µM.

On to `Fc1cc(F)c(-c2ncccc2-c2ccn3nccc3c2)cc1Cl` [compound 760, 5-(2-(5-Chloro-2,4-difluorophenyl)pyridin-3-yl)pyrazolo[1,5-a]pyridine], for which the IC50 stood at 0.274 µM.

For `Fc1ccc(-c2ncccc2-c2ccc3[nH]ncc3c2)c(F)c1` [Compound 70, 5-[2-(2,4-Difluorophenyl)pyridin-3-yl]-1H-indazole], the IC50 turned out to be 5.7 µM.

For the molecule `Cc1cc(-c2ncc(-c3cccc(S(N)(=O)=O)c3)cc2-c2ccc3ncsc3c2)ccc1F` [compound 347, 3-(5-(Benzo[d]thiazol-6-yl)-6-(4-fluoro-3-methylphenyl)pyridin-3-yl)benzenesulfonamide], the IC50 was 1.49 µM.

As to `Cc1cc(-c2ncc(NCc3cnc4ccccc4c3)cc2-c2ccc3ncsc3c2)ccc1F` [compound 339, 5-(Benzo[d]thiazol-6-yl)-6-(4-fluoro-3-methylphenyl)-N-(quinolin-3-ylmethyl)pyridin-3-amine], the IC50 was found to be 0.59 µM.

Consider `CCCNC(=O)c1cnc2ccc(-c3cccnc3-c3ccc(F)c(C)c3)cn12` [compound 583, 6-(2-(4-Fluoro-3-methylphenyl)pyridin-3-yl)-N-propylimidazo[1,2-a]pyridine-3-carboxamide], for which the IC50 came to 0.518 µM.

As to `Cc1cc(-c2ncccc2-c2ccc3ncnc(Nc4ccc(C#N)cc4)c3c2)ccc1F` [compound 409, 4-((6-(2-(4-Fluoro-3-methylphenyl)pyridin-3-yl)quinazolin-4-yl)amino)benzonitrile], the IC50 stood at 7.95 µM.

For `COc1cnc(-c2cccc(C(F)(F)F)c2)c(-c2ccn3ncnc3c2)c1` [compound 859], the IC50 worked out at 3.7 µM.

With `COc1ncnc2ccc(-c3cccnc3-c3cc(Cl)ccc3F)cc12` [compound 820, 6-(2-(5-Chloro-2-fluorophenyl)pyridin-3-yl)-4-methoxyquinazoline], the IC50 was determined as 3.06 µM.

For the molecule `Cc1cc(-c2ncccc2-c2ccc3c(cnn3C)c2)ccc1F` [Compound 145, 5-(2-(4-Fluoro-3-methylphenyl)pyridin-3-yl)-1-methyl-1H-indazole], the IC50 amounted to 1.13 µM.

For the molecule `Cc1cc(-c2ncccc2-c2ccc3ncc(C(=O)N[C@@H]4CCCC[C@H]4N)n3c2)ccc1F` [compound 679, N-((1R,2R)-2-Aminocyclohexyl)-6-(2-(4-fluoro-3-methylphenyl)pyridin-3-yl)imidazo[1,2-a]pyridine-3-carboxamide], the IC50 was determined as 10.8 µM.

As for `Cc1cc(-c2ncccc2-c2ccc3nc[nH]c3c2)ccc1F` [Compound 177, 6-(2-(4-Fluoro-3-methylphenyl)pyridin-3-yl)-1H-benzo[d]imidazole], the IC50 worked out at 0.363 µM.

As to `Cc1cc(-c2ncc(Nc3ccc(C(N)=O)cc3)cc2-c2ccc3ncsc3c2)ccc1F` [compound 310, 4-((5-(Benzo[d]thiazol-6-yl)-6-(4-fluoro-3-methylphenyl)pyridin-3-yl)amino)benzamide], the IC50 was found to be 1.14 µM.

As for `Fc1ccc(Cl)cc1-c1ncccc1-c1ccc2ncnn2n1` [compound 955, 6-(2-(5-Chloro-2-fluorophenyl)pyridin-3-yl)-[1,2,4]triazolo[1,5-b]pyridazine], the IC50 was found to be 0.29 µM.

With `Cc1cc(-c2ncccc2-c2ccn3c(C(=O)NCCCn4ccnc4)ncc3c2)ccc1F` [compound 277, N-(3-(1H-Imidazol-1-yl)propyl)-7-(2-(4-fluoro-3-methylphenyl)pyridin-3-yl)imidazo[1,5-a]pyridine-3-carboxamide], the IC50 was 1.67 µM.

With `Cc1cc(Cl)cc(-c2ncccc2-c2ccc3ncnn3c2)c1` [compound 775, 6-(2-(3-Chloro-5-methylphenyl)pyridin-3-yl)-[1,2,4]triazolo[1,5-a]pyridine], the IC50 is 3.96 µM.

Turning to `Fc1ccc(Cl)cc1-c1ncccc1-c1ccn2nccc2c1` [compound 761, 5-(2-(5-Chloro-2-fluorophenyl)pyridin-3-yl)pyrazolo[1,5-a]pyridine], the IC50 came out at 0.131 µM.

For the molecule `COc1cccc(-c2ncccc2-c2ccn3ncnc3c2)c1` [compound 880, 7-(2-(3-Methoxyphenyl)pyridin-3-yl)-[1,2,4]triazolo[1,5-a]pyridine], the IC50 was found to be 0.808 µM.

Turning to `Fc1ccc(-c2ncccc2-c2ccc3ncc(-c4cc[nH]n4)n3c2)cc1Cl` [compound 852, 6-(2-(3-Chloro-4-fluorophenyl)pyridin-3-yl)-3-(1H-pyrazol-3-yl)imidazo[1,2-a]pyridine], the IC50 was determined as 0.207 µM.

`CN1CCC(NC(=O)c2cnc3ccc(-c4cccnc4-c4cc(Cl)ccc4F)cn23)CC1` [compound 722, 6-(2-(5-Chloro-2-fluorophenyl)pyridin-3-yl)-N-(1-methylpiperidin-4-yl)imidazo[1,2-a]pyridine-3-carboxamide]: the IC50 worked out at 0.0639 µM.

With `Fc1ccc(-c2ncccc2-c2ccc3cn[nH]c3c2)cc1F` [Compound 98, 6-(2-(3,4-Difluorophenyl)pyridin-3-yl)-1H-indazole], the IC50 worked out at 10.3 µM.

Turning to `CC(=O)c1cnc2ccc(-c3cccnc3-c3cccc(C(F)(F)F)c3)cn12` [compound 589, 1-(6-(2-(3-(Trifluoromethyl)phenyl)pyridin-3-yl)imidazo[1,2-a]pyridin-3-yl)ethan-1-one], the IC50 turned out to be 1.22 µM.

Consider `Fc1ccc(-c2ncccc2-c2cnc3cn[nH]c3c2)cc1F` [Compound 137, 6-(2-(3,4-Difluorophenyl)pyridin-3-yl)-1H-pyrazolo[4,3-b]pyridine], for which the IC50 stood at 22.8 µM.

For the molecule `Cc1cc(-c2ncc(NCc3ccc(N4CCN(C)CC4)cc3)cc2-c2ccc3ncsc3c2)ccc1F` [compound 373, 5-(Benzo[d]thiazol-6-yl)-6-(4-fluoro-3-methylphenyl)-N-(4-(4-methylpiperazin-1-yl)benzyl)pyridin-3-amine], the IC50 was found to be 1.2 µM.
